The test system of this test is HER2. Nature of the test: HER2 degradation assay with BT-474 cell line (Example 12, FACS). The settings on record: Homo sapiens. The test is classed as cell-based. From the text: HER2 Degradation Assay with BT-474 Cell Line
HER2 has emerged as a key target for anticancer drugs due to its intrinsic involvement in the phosphatidylinositol-3-kinase-Akt/protein kinase B (PI3K-Akt) and the mitogen-activated protein kinase (MAPK) pathways, both of which suppress apoptosis and promote tumor cell survival, gene transcription, angiogenesis, cellular proliferation, migration, mitosis, and differentiation. The degradation of HER2 is a measure of efficacy of anticancer therapeutics that target Hsp90. Accordingly, the SDC-TRAP molecules of the invention that comprise a binding moiety that binds Hsp90 were tested in the following HER2 degradation assay.
BT-474 cells (human breast cancer cell line ATCC HTB-20) were obtained from ATCC and seeded into 12-well tissue culture plates at 0.2×10^6/1.8 mL/well. […] Each test compound was titrated in 4-fold dilutions from 5 μM to 78 nM with DMSO and 200 μL of the titration was added to each well of the cell plate. The DMSO final concentration was 0.2%. Cells were incubated overnight at 37° C. in 5% CO2.
Media was decanted from the plate, cells were washed 1× in PBS. 400 μL trypsin (EDTA) per well was added, and the cells were incubated for 2 to 3 minutes. Cells were collected into FACS tubes containing 1 ml culture medium to neutralize the trypsin and were centrifuged for 5 minutes at 1200 rpm. Supernatant was decanted and the cells were resuspended in 5 μL FITC (anti HER2/nu)/200 μL staining buffer (1×PBS+1% FBS+0.05% Sodium Azide)/tube. Controls were […] IgG isotype control and staining buffer only. Tubes were incubated for 30 minutes in the dark at room temperature. 1 mL staining buffer was added to each tube and the tubes were centrifuged for 6 minutes at 1200 rpm. The supernatant was decanted and 300 μL staining buffer was added to each tube, which was store at 4° C. for FACS (cytometer) analysis. The cytometer readout was normalized and the potency of each compound is evaluated with IC50 calculated with XLfit™ software.

Setting [1] is: BT-474, SDC-TRAPs of the 43rd table.
The mark [2] stands for this setting: BT-474, SDC-TRAPs of the 41st table.

This passage reports IC50 results from patent US9956293B2, “Targeted therapeutics” (Madrigal Pharmaceuticals, Inc., priority 2014, dated 2018).

Structures are written as SMILES.

Turning to `CC(C)c1cc(-c2nnc(O)n2-c2ccc3c(ccn3CCNC(=O)Cn3cc(F)c(=O)[nH]c3=O)c2)c(O)cc1O` [SDC-TRAP-0013, N-(2-(5-(3-(2,4-dihydroxy-5-isopropylphenyl)-5-hydroxy-4H-1,2,4-triazol-4-yl)-1H-indol-1-yl)ethyl)-2-(5-fluoro-2,4-dioxo-3,4-dihydropyrimidin-1(2H)-yl) acetamide], the IC50 – broadly, the midpoint of a concentration-inhibition curve – (BT-474 cells) is over 5000 nM.

In turn, `CC(C)c1cc(-c2nnc(O)n2-c2ccc3c(ccn3CCOCCNC(=O)CCn3cc(F)c(=O)[nH]c3=O)c2)c(O)cc1O` [SDC-TRAP-0048, N-(2-(2-(5-(3-(2,4-dihydroxy-5-isopropylphenyl)-5-hydroxy-4H-1,2,4-triazol-4-yl)-1H-indol-1-yl)ethoxy)ethyl)-3-(5-fluoro-2,4-dioxo-3,4-dihydropyrimidin-1(2H)-yl)propanamide] had an IC50 (BT-474 cells) of over 5000 nM.

As to `CC(C)c1cc(-c2nnc(O)n2-c2ccc(CN3CCN(C(=O)CCn4cc(F)c(=O)[nH]c4=O)CC3)cc2)c(O)cc1O` [SDC-TRAP-0049, 1-(3-(4-(4-(3-(2,4-dihydroxy-5-isopropylphenyl)-5-hydroxy-4H-1,2,4-triazol-4-yl)benzyl)piperazin-1-yl)-3-oxopropyl)-5-fluoropyrimidine-2,4(1H,3H)-dione], for the setting “BT-474 cells”, the IC50 is over 5000 nM.

Regarding `CC(C)c1cc(-c2nnc(O)n2-c2ccc3c(ccn3CCOCCN(C)C(=O)CCn3cc(F)c(=O)[nH]c3=O)c2)c(O)cc1O` [SDC-TRAP-0050, N-(2-(2-(5-(3-(2,4-dihydroxy-5-isopropylphenyl)-5-hydroxy-4H-1,2,4-triazol-4-yl)-1H-indol-1-yl)ethoxy)ethyl)-3-(5-fluoro-2,4-dioxo-3,4-dihydropyrimidin-1(2H)-yl)-N-methylpropanamide], the IC50 (BT-474 cells) is over 5000 nM.

For the compound `CC(C)c1cc(-c2nnc(O)n2-c2ccc3c(ccn3CCN(C)C(=O)CCn3cc(F)c(=O)[nH]c3=O)c2)c(O)cc1O` [SDC-TRAP-0051, N-(2-(5-(3-(2,4-dihydroxy-5-isopropylphenyl)-5-hydroxy-4H-1,2,4-triazol-4-yl)-1H-indol-1-yl)ethyl)-3-(5-fluoro-2,4-dioxo-3,4-dihydropyrimidin-1(2H)-yl)-N-methylpropanamide], the IC50 (BT-474 cells) was over 5000 nM.

Under setting [1], `CCc1c2c(nc3ccc(O)cc13)-c1cc3c(c(=O)n1C2)COC(=O)C3(CC)OC(=O)N(C)CCCCN1CCN(Cc2ccc(-n3c(O)nnc3-c3cc(C(C)C)c(O)cc3O)cc2)CC1` (stereo not drawn) [SDC-TRAP-0055, 4,11-diethyl-9-hydroxy-3,14-dioxo-3,4,12,14-tetrahydro-1H-pyrano[3′,4′:6,7]indolizino[1,2-b]quinolin-4-yl (4-(4-(4-(3-(2,4-dihydroxy-5-isopropylphenyl)-5-hydroxy-4H-1,2,4-triazol-4-yl)benzyl)piperazin-1-yl)butyl)(methyl)carbamate] returned an IC50 of 402 nM.

The compound `CCc1c2c(nc3ccc(OCCN4CCN(c5ccc(-n6c(O)nnc6-c6cc(C(C)C)c(O)cc6O)cc5)CC4)cc13)-c1cc3c(c(=O)n1C2)COC(=O)C3(O)CC` (stereo not drawn) [SDC-TRAP-0057, 9-(2-(4-(4-(3-(2,4-dihydroxy-5-isopropylphenyl)-5-hydroxy-4H-1,2,4-triazol-4-yl)phenyl)piperazin-1-yl)ethoxy)-4,11-diethyl-4-hydroxy-1H-pyrano[3′,4′:6,7]indolizino[1,2-b]quinoline-3,14(4H,12H)-dione] had an IC50 under setting [1] of 449 nM.

Take `CCc1c2c(nc3ccc(OCCn4ccc5cc(-n6c(O)nnc6-c6cc(C(C)C)c(O)cc6O)ccc54)cc13)-c1cc3c(c(=O)n1C2)COC(=O)C3(O)CC` (stereo not drawn) [SDC-TRAP-0058, 9-(2-(5-(3-(2,4-dihydroxy-5-isopropylphenyl)-5-hydroxy-4H-1,2,4-triazol-4-yl)-1H-indol-1-yl)ethoxy)-4,11-diethyl-4-hydroxy-1H-pyrano[3′,4′:6,7]indolizino[1,2-b]quinoline-3,14(4H,12H)-dione]: under setting [1], the IC50 amounted to 2930 nM.

On to `CC(C)c1cc(-c2nnc(O)n2-c2ccc(CN3CCN(C(=O)c4ccc(CCc5c[nH]c6nc(N)[nH]c(=O)c56)cc4)CC3)cc2)c(O)cc1O` [SDC-TRAP-0068, 2-amino-5-(4-(4-(4-(3-(2,4-dihydroxy-5-isopropylphenyl)-5-hydroxy-4H-1,2,4-triazol-4-yl)benzyl)piperazine-1-carbonyl)phenethyl)-3H-pyrrolo[2,3-d]pyrimidin-4(7H)-one], for which, under setting [2], the IC50 turned out to be 262 nM.

`CCc1c2c(nc3ccc(OCC(=O)N4CCN(Cc5ccc(-n6c(O)nnc6-c6cc(C(C)C)c(O)cc6O)cc5)CC4)cc13)-c1cc3c(c(=O)n1C2)COC(=O)C3(O)CC` (stereo not drawn) [SDC-TRAP-0077, 9-(2-(4-(4-(3-(2,4-dihydroxy-5-isopropylphenyl)-5-hydroxy-4H-1,2,4-triazol-4-yl)benzyl)piperazin-1-yl)-2-oxoethoxy)-4,11-diethyl-4-hydroxy-1H-pyrano[3′,4′:6, 7]indolizino[1,2-b]quinoline-3,14(4H,12H)-dione] came in with an IC50 under setting [1] of 2790 nM.

For the compound `CC(C)c1cc(-c2nnc(O)n2-c2ccc(CN3CCN(C(=O)c4ccc(CCc5c[nH]c6nc(N)[nH]c(=O)c56)cc4)CC3)c(F)c2)c(O)cc1O` [SDC-TRAP-0078, 2-amino-5-(4-(4-(4-(3-(2,4-dihydroxy-5-isopropylphenyl)-5-hydroxy-4H-1,2,4-triazol-4-yl)-2-fluorobenzyl)piperazine-1-carbonyl)phenethyl)-3H-pyrrolo[2,3-d]pyrimidin-4(7H)-one], the IC50 under setting [2] was determined as 1000 nM.

In the case of `CC(C)c1cc(-c2nnc(O)n2-c2ccc(N3CCN(C(=O)c4ccc(CCc5c[nH]c6nc(N)[nH]c(=O)c56)cc4)CC3)cc2)c(O)cc1O` [SDC-TRAP-0082, 2-amino-5-(4-(4-(4-(3-(2,4-dihydroxy-5-isopropylphenyl)-5-hydroxy-4H-1,2,4-triazol-4-yl)phenyl)piperazine-1-carbonyl)phenethyl)-3H-pyrrolo[2,3-d]pyrimidin-4(7H)-one], the IC50 under setting [2] stood at 1040 nM.

For the compound `CC(C)c1cc(-c2nnc(O)n2-c2ccc3c(c2)CN(C(=O)c2ccc(CCc4c[nH]c5nc(N)[nH]c(=O)c45)cc2)C3)c(O)cc1O` [SDC-TRAP-0093, 2-amino-5-(4-(5-(3-(2,4-dihydroxy-5-isopropylphenyl)-5-hydroxy-4H-1,2,4-triazol-4-yl)isoindoline-2-carbonyl)phenethyl)-3H-pyrrolo[2,3-d]pyrimidin-4(7H)-one], the IC50 under setting [2] is over 5000 nM.

`COc1ccc(-c2cnoc2-c2cc(OC)c(OC)c(OC)c2)cc1OC(=O)N1CCN(c2ccc(-n3c(O)nnc3-c3cc(C(C)C)c(O)cc3O)cc2)CC1` [SDC-TRAP-0099, 2-methoxy-5-(5-(3,4,5-trimethoxyphenyl)isoxazol-4-yl)phenyl-4-(4-(3-(2,4-dihydroxy-5-isopropylphenyl)-5-hydroxy-4H-1,2,4-triazol-4-yl)phenyl)piperazine-1-carboxylate]: 677 nM corresponded to half-maximal inhibition (BT-474, SDC-TRAPs of the 52nd table) (IC50). That is a sub-micromolar value.

In the case of `CC(C)c1cc(-c2nnc(O)n2-c2ccc3c(c2)nc(C2CCN(C(=O)c4ccc(CCc5c[nH]c6nc(N)[nH]c(=O)c56)cc4)CC2)n3C)c(O)cc1O` [SDC-TRAP-0102, 2-amino-5-(4-(4-(5-(3-(2,4-dihydroxy-5-isopropylphenyl)-5-hydroxy-4H-1,2,4-triazol-4-yl)-1-methyl-1H-benzo[d]imidazol-2-yl)piperidine-1-carbonyl)phenethyl)-3H-pyrrolo[2,3-d]pyrimidin-4(7H)-one], the IC50 under setting [2] is over 5000 nM.

`CC(C)c1cc(-c2nnc(O)n2-c2ccc(CC3CCN(CC4CCN(C(=O)c5ccc(CCc6c[nH]c7nc(N)[nH]c(=O)c67)cc5)CC4)CC3)cc2)c(O)cc1O` [SDC-TRAP-0103, 2-amino-5-(4-(4-((4-(4-(3-(2,4-dihydroxy-5-isopropylphenyl)-5-hydroxy-4H-1,2,4-triazol-4-yl)benzyl)piperidin-1-yl)methyl)piperidine-1-carbonyl)phenethyl)-3H-pyrrolo[2,3-d]pyrimidin-4(7H)-one] came in with an IC50 under setting [2] of 245 nM.

The compound `CC(C)c1cc(-c2nnc(O)n2-c2ccc(CN3CCN(CCN(C)C(=O)Nc4cccc5c4CN(C4CCC(=O)NC4=O)C5=O)CC3)cc2)c(O)cc1O` (stereo not drawn) [SDC-TRAP-0105, 1-(2-(4-(4-(3-(2,4-dihydroxy-5-isopropylphenyl)-5-hydroxy-4H-1,2,4-triazol-4-yl)benzyl)piperazin-1-yl)ethyl)-3-(2-(2,6-dioxopiperidin-3-yl)-1-oxoisoindolin-4-yl)-1-methylurea] gave an IC50 (BT-474 cells) of over 10000 nM.

For `CC(C)c1cc(-c2nnc(O)n2-c2ccc(CCC3CCN(C(=O)Nc4cccc5c4CN(C4CCC(=O)NC4=O)C5=O)CC3)cc2)c(O)cc1O` (stereo not drawn) [SDC-TRAP-0108, 4-(4-(3-(2,4-dihydroxy-5-isopropylphenyl)-5-hydroxy-4H-1,2,4-triazol-4-yl)phenethyl)-N-(2-(2,6-dioxopiperidin-3-yl)-1-oxoisoindolin-4-yl) piperidine-1-carboxamide], the IC50 (BT-474 cells) was over 10000 nM.
